Data: ChEMBL document CHEMBL4308834, “Novel Allosteric Activators for Ferroptosis Regulator Glutathione Peroxidase 4” (J Med Chem, 2018)
pKd: −log10 of the molar value. Activity calls are given as the source filed them. No cut-off for these calls is given here.

Experiments:
[1] = species on record: Homo sapiens; test: (§1) Activation of recombinant His-tagged human cytosolic GPX4 U46C mutant expressed in Escherichia coli M15 assessed as increase in oxidized glutathione-mediated oxidation of NADPH to NADP+ using tert-butyl hydroperoxide as substrate preincubated for 5 mins followed by substrate addition measured for 6 mins by glutathione reductase enzyme coupled fluorescence assay
[2] = species on record: Homo sapiens; test: as §1, with “NADP+ at 0.4 to 250 uM” for “NADP+”, “assay relative to control” for “assay”
[3] = species on record: Homo sapiens; test: as §1, with “NADP+ at 200 uM” for “NADP+”, “assay relative to control” for “assay”
[4] = Binding affinity to recombinant His-tagged human cytosolic GPX4 U46C mutant expressed in Escherichia coli M15 by SPR analysis
[5] = species on record: Homo sapiens; test: as §1, with “recombinant” for “recombinant His-tagged”, “human” for “human cytosolic”, “D21A/U46C double” for “U46C”, “assay relative to GPX4 U46C mutant control” for “assay”
[6] = species on record: Homo sapiens; test: as §1, with “recombinant” for “recombinant His-tagged”, “human” for “human cytosolic”, “D23A/U46C double” for “U46C”, “assay relative to GPX4 U46C mutant control” for “assay”
[7] = species on record: Homo sapiens; test: as §1, with “recombinant” for “recombinant His-tagged”, “human” for “human cytosolic”, “D21A/D23A/U46C” for “U46C”, “assay relative to GPX4 U46C mutant control” for “assay”
[8] = Binding affinity to recombinant human GPX4 D21A/D23A double mutant expressed in Escherichia coli M15 by SPR analysis
[9] = target: Phospholipid hydroperoxide glutathione peroxidase GPX4 (Mus musculus) (UniProt O70325); test: Activation of GPX4 in MEF assessed as increase in oxidized glutathione-mediated oxidation of NADPH to NADP+ using tert-butyl hydroperoxide as substrate preincubated for 5 mins followed by substrate addition measured for 6 mins by glutathione reductase enzyme coupled fluorescence assay; format: cell-based
Chain of Phospholipid hydroperoxide glutathione peroxidase GPX4 (Mus musculus) (O70325 whole entry): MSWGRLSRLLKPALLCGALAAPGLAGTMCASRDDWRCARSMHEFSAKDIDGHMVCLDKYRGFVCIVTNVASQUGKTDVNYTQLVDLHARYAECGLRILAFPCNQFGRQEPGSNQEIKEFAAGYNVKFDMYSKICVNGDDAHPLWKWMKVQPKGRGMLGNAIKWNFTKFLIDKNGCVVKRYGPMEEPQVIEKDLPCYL

[10] = Zinc chelating activity in presence of ZnSO4 after 10 mins by crystal violet staining based assay
[11] = Iron chelating activity assessed as compound-Fe2+ complex formation after 10 mins by Prussian blue assay
[12] = target: Phospholipid hydroperoxide glutathione peroxidase GPX4 (Mus musculus) (UniProt O70325); test: Activation of GPX4 in MEF assessed as increase in […] protection against CHOOH-induced cell death at 200 uM; format: cell-based
[13] = Antioxidant activity assessed as DPPH radical scavenging activity at 500 uM; format: functional

Row | Compound | EC150 [1] | Emax [2] | Activity [3] | also measured
1 | CC(C)(C)NC(=S)Nc1ccc(S(=O)(=O)NCCN)cc1 | 29 µM | 437% | 318% | –
2 | O=S(=O)(NCCO)c1ccc(NC(=S)NC2CCCC2)cc1 | – | – | < 115% | –
3 | CCNC(=S)Nc1ccc(S(=O)(=O)NCCN)cc1 | – | – | < 115% | –
4 | NCCNS(=O)(=O)c1ccc(NC(=S)NCc2ccc(Cl)cc2)cc1 | – | – | < 115% | –
5 | CNCCNS(=O)(=O)c1ccc(NC(=S)NC2CCCC2)cc1 | 121 µM | 209% | 167% | –
6 | O=S(=O)(NCCO)c1ccc(NC(=S)NCc2ccc(Cl)cc2)cc1 | – | – | < 115% | –
7 | NCCNS(=O)(=O)c1ccc(NC(=S)NC2CCCCCC2)cc1 | – | – | < 115% | –
8 | CN1CCN(C(S)=Nc2ccc(S(N)(=O)=O)cc2)CC1 | 285 µM | 200% | 115% | Activity [1]: Dose-dependent effect
9 | NCCCNS(=O)(=O)c1ccc(NC(=S)NC2CCCC2)cc1 | 301 µM | 214% | 121% | –
10 | NCCNS(=O)(=O)c1ccc(NC(=S)NC2CCCC2)cc1 | 20 µM | 279% | 219% | pKd [4]: 4.72; EC150 [5]: 367 µM; EC150 [6]: 235 µM; EC150 [7]: 382 µM; pKd [8]: 3.43; Activity [9]: Dose-dependent effect; EC150 [9]: 61 µM; Activity [10]: inactive; Activity [11]: inactive; Activity [12]: Active; Activity [13]: inactive

Further lines, with some results ahead:

Row | EC150 [1] | Emax [2] | Activity [3] | Compound | also measured
11 | 147 µM | 225% | 167% | NS(=O)(=O)c1ccc(NC(=S)NCCO)cc1 | Activity [1]: Dose-dependent effect
12 | – | – | < 115% | CCNS(=O)(=O)c1ccc(NC(=S)NC2CCCC2)cc1 | –
13 | – | – | < 115% | NCCNS(=O)(=O)c1ccc(NC(=S)NC2CCCCC2)cc1 | –
14 | 255 µM | 300% | 129% | NS(=O)(=O)c1ccc(NC(S)=NCc2ccccc2)cc1 | Activity [1]: Dose-dependent effect
15 | – | – | < 115% | NCCCCNS(=O)(=O)c1ccc(NC(=S)NC2CCCC2)cc1 | –
